Results taken from paper PMC7181201, “Dual P-Glycoprotein and CA XII Inhibitors: A New Strategy to Reverse the P-gp Mediated Multidrug Resistance (MDR) in Cancer Cells” (Molecules, 2020).

Key:
P-gp [1] = molecular target: T1, P-gp (Homo sapiens, UniProt P08183); experiment: Rhodamine-123 uptake test on K562/DOX cells (flow cytometry); type: cell-based
T1 construct: doxorubicin resistant K562/DOX cell line overexpresses almost exclusively the transporter membrane protein P-gp; endogenous in cells; host or cells: K562/DOX (doxorubicin-selected human erythroleukemia cells)
Experimental: The results were expressed as the FR (fluorescence ratio), which is the ratio between the average fluorescence intensity of rhodamine in the presence and in the absence of modulators. Value 1 was attributed to the average fluorescence intensity of the samples exposed only to rhodamine.
(§1) An aliquot of cells (control) was incubated with the fluorochrome in the absence of inhibitors.
(§2) At the end of the uptake, cells were sedimented, washed twice in ice-cold PBS, placed in PBS on ice, and kept in the dark until flow cytometric analysis.
(§3) The histograms were generated by program GraphPad Prism 5 (GraphPad Prism software, Inc., San Diego, CA, USA); the data were obtained from the ratio between the average fluorescence intensity of the samples preincubated with the compounds under study and subsequently exposed to rhodamine, and the fluorescence of the sample exposed only to the rhodamine.

P-gp [2] = molecular target: T1, P-gp; experiment: Rhodamine-123 uptake test on LoVo/DOX cells (flow cytometry); type: cell-based; settings: compound 3 µM
Experimental: The selected compounds were preliminary studied at 3, 10 and 30 µM concentrations by the MTT (3-(4,5-dimethylthiazolyl-2)-2,5-diphenyltetrazolium bromide) assay to evaluate their intrinsic cytotoxicity on LoVo/DOX cell line.
as §1, §2, §3

hCA I = molecular target: T2, hCA I (Homo sapiens, UniProt P00915); experiment: Stopped-flow CO2 hydrase assay, hCA I; type: biochemical; settings: mean from 3 assays
T2 construct: made in house
Experimental: (§4) An SX.18MV-R Applied Photophysics (Oxford, UK) stopped-flow instrument was used to assay the catalytic/inhibition of various CA isozymes. […] Saturated CO2 solutions in water at 25 °C were used as a substrate. Stock solutions of inhibitors were prepared at a concentration of 10 μM (in DMSO-water 1:1, v/v) and dilutions up to 0.01 nM done with the assay buffer mentioned above. […] Inhibitor and enzyme solutions were preincubated together for 10 min at room temperature prior to the assay, in order to allow for the formation of the E–I complex. […] The inhibition constants were obtained by non-linear least-squares methods using the Cheng–Prusoff equation, as reported earlier, and represent the mean from at least three different determinations. All CA isozymes used here were recombinant proteins obtained as reported earlier by our group.

hCA II = molecular target: T3, hCA II (Homo sapiens, UniProt P00918); experiment: Stopped-flow CO2 hydrase assay, hCA II; type: biochemical; settings: stopped flow, mean from 3 assays
T3 construct: made in house
Experimental: as §4

hCA IX = molecular target: T4, hCA IX (Homo sapiens, UniProt Q16790); experiment: Stopped-flow CO2 hydrase assay, hCA IX; type: biochemical; settings: stopped flow, mean from 3 assays
T4 construct: made in house
Experimental: as §4

hCA XII = molecular target: T5, hCA XII (Homo sapiens, UniProt O43570); experiment: Stopped-flow CO2 hydrase assay, hCA XII; type: biochemical; settings: stopped flow, mean from 3 assays
T5 construct: made in house
Experimental: as §4

K562/DOX cells [3] = experiment: Enhancement of doxorubicin cytotoxicity on K562/DOX cells (MTT); type: cell-based, human; settings: 72 h
Experimental: (§5) To evaluate the enhancement of doxorubicin toxicity in the presence of the tested compounds, the cells, in exponential growth phase, were seeded at 10^4 cells/well and solutions of either compounds or doxorubicin, or a solution of doxorubicin in combination with the compounds, were added to the wells repeated in quadruplicate. […] The MTT working solution was then added and plates were further incubated for 3 h. Following incubation cells and formazan crystals were inspected microscopically. The supernatant was then carefully removed by slow aspiration and the formazan crystals were dissolved in […] of acidified isopropanol solution. The absorbance of the solution was then read on an automated plate reader at a wavelength of 570 nm. The increase in the toxicity of doxorubicin was quantified by the ratio between the growth of the cell sample treated with IC20 of doxorubicin and that of the cell sample treated with IC20 of doxorubicin in combination with the various concentrations of the tested compounds.

LoVo/DOX cells [4] = experiment: Enhancement of doxorubicin cytotoxicity on LoVo/DOX cells (MTT); type: cell-based, human; settings: 72 h
Experimental: as §5

K562/DOX cells [5] = tested on: K562/DOX cells; set-up: method as in PMID 30947123; settings: cited from earlier work
LoVo cells = experiment: Doxorubicin IC50 on parental LoVo cells (MTT); settings: Homo sapiens, 72 h, read-out: doxorubicin IC50
Experimental: (§6) For the LoVo/DOX cell line, the doxorubicin growth inhibition was determined by the MTT assay and the IC50 and IC20 values were determined. Approximately 10^4 cells/well were plated onto 96-well plates and allowed to attach for 24 h before treatment with a range of drug concentrations from 3 × 10^−11 to 3 × 10^−5 M for 3 days; each concentration was repeated four times. At the end of the incubation the cells were processed according to the MTT protocol [43] and the optical density of the chromogenic product was measured at 570 nm. IC50 and IC20 values were determined graphically from relative survival curves obtained by GraphPad Prism 5 software (GraphPad, San Diego, CA, USA).
(§7) The resistance index to doxorubicin of the two resistant cell lines was obtained from the ratio between the doxorubicin IC50 (µM) values on the resistant and parental lines.

LoVo/DOX cells [6] = experiment: Doxorubicin IC50 and IC20 evaluation on LoVo/DOX cells (MTT)
Experimental: as §6, §7

[7] = doxorubicin 0.5 µM (IC20) + compound 3 µM
[8] = doxorubicin 0.5 µM (IC20) + compound 10 µM
[9] = doxorubicin 0.3 µM (IC20) + compound 3 µM
[10] = doxorubicin 0.3 µM (IC20) + compound 10 µM

T5 sequence (O43570 25-354): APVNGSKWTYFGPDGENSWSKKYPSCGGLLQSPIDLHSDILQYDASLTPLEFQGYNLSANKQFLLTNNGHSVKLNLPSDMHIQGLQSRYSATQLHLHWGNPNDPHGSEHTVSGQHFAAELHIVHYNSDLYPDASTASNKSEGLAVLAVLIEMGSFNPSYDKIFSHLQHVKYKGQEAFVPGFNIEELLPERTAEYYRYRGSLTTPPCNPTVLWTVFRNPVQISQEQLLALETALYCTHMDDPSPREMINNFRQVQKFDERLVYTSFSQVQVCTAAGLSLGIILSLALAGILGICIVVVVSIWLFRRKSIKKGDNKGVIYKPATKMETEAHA
T2 sequence (P00915 whole entry): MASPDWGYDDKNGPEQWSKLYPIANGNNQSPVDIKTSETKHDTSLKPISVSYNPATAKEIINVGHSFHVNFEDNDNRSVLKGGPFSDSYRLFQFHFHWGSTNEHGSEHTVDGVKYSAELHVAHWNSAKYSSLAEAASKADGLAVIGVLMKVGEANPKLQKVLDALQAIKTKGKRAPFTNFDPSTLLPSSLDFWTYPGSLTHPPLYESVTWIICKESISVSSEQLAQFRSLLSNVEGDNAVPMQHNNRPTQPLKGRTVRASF
T1 sequence (P08183 whole entry): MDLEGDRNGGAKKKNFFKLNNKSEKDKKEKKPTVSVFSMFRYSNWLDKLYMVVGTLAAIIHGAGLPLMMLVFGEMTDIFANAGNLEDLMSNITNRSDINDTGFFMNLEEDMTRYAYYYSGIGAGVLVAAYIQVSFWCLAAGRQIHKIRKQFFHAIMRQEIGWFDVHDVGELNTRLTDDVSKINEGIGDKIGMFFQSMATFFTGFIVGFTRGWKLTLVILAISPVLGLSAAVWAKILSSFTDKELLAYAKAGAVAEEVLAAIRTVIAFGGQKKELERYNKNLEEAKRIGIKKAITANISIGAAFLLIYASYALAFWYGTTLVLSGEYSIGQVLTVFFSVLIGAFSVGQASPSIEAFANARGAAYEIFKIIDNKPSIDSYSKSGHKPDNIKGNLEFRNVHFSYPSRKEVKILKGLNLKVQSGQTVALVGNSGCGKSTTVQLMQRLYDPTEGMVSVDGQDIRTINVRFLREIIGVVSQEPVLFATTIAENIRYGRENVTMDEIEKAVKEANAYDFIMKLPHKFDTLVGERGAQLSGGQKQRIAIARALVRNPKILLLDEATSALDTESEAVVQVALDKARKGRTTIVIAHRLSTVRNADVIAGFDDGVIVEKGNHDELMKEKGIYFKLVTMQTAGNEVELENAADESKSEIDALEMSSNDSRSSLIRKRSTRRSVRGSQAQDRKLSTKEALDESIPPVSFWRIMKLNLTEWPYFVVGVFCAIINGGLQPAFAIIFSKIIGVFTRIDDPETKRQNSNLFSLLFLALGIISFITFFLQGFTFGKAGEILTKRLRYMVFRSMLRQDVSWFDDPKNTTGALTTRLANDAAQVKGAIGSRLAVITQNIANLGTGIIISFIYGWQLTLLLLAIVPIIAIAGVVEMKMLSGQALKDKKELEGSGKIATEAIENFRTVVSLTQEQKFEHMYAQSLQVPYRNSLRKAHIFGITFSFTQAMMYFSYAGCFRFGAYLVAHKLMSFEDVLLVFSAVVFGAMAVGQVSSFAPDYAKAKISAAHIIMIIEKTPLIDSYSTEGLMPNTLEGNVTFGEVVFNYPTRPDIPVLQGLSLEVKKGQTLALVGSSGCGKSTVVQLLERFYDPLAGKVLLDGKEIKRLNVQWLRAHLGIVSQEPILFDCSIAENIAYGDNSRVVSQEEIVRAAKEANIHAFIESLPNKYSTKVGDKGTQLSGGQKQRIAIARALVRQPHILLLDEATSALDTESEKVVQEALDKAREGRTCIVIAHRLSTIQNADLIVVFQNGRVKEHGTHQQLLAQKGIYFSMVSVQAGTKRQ

COc1cc(/C=C/C(=O)OCCCCCCCN(C)CCOC(=O)c2ccc(S(N)(=O)=O)cc2)cc(OC)c1OC [Compound 21, (E)-2-(methyl(7-((3-(3,4,5-trimethoxyphenyl)acryloyl)oxy)heptyl)amino)ethyl 4-sulfamoyl benzoate]
FR (fluorescence ratio, Rhd 123 uptake with/without modulator) (P-gp [1]; compound 3 µM): 1.30 | FR (fluorescence ratio, Rhd 123 uptake with/without modulator) (P-gp [1]; compound 30 µM): 3.70 | FR (fluorescence ratio, Rhd 123 uptake) (P-gp [2]): negligible | Ki (hCA I): 533 nM | Ki (hCA II): 48.9 nM | Ki (hCA IX): 68.4 nM | Ki (hCA XII): 35.2 nM | Cell Growth (%) (K562/DOX cells [3]; [7]): 78.8 ± 10.2% | Cell Growth (%) (K562/DOX cells [3]; [8]): 68.7 ± 3.6% | Cell Growth (%) (LoVo/DOX cells [4]; [9]): 82.0 ± 2.7% | Cell Growth (%) (LoVo/DOX cells [4]; [10]): 59.0 ± 3.3%

COc1cc(C(=O)OCCCCCCCN(C)CCOC(=O)c2ccc(S(N)(=O)=O)cc2)cc(OC)c1OC [Compound 25, 7-(methyl(2-((4-sulfamoylbenzoyl)oxy)ethyl)amino)heptyl 3,4,5-trimethoxybenzoate]
FR (fluorescence ratio, Rhd 123 uptake with/without modulator) (P-gp [1]; compound 3 µM): 1.44 | FR (fluorescence ratio, Rhd 123 uptake with/without modulator) (P-gp [1]; compound 30 µM): 3.50 | FR (fluorescence ratio, Rhd 123 uptake) (P-gp [2]): negligible | Ki (hCA I): 42.7 nM | Ki (hCA II): 90.2 nM | Ki (hCA IX): 117 nM | Ki (hCA XII): 8 nM | Cell Growth (%) (K562/DOX cells [3]; [7]): 80.3 ± 5.9% | Cell Growth (%) (K562/DOX cells [3]; [8]): 76.0 ± 3.7% | Cell Growth (%) (LoVo/DOX cells [4]; [9]): 81.7 ± 2.0%

CN(CCCCCOC(=O)c1ccc(S(N)(=O)=O)cc1)CCCOC(=O)c1c2ccccc2cc2ccccc12 [Compound 26, 3-(methyl(5-((4-sulfamoylbenzoyl)oxy)pentyl)amino)propyl anthracene-9-carboxylate]
FR (fluorescence ratio, Rhd 123 uptake with/without modulator) (P-gp [1]; compound 3 µM): 2.10 | FR (fluorescence ratio, Rhd 123 uptake with/without modulator) (P-gp [1]; compound 30 µM): 4.45 | FR (fluorescence ratio, Rhd 123 uptake) (P-gp [2]): negligible | Ki (hCA I): 339 nM | Ki (hCA II): 81.2 nM | Ki (hCA IX): 241 nM | Ki (hCA XII): 23.4 nM | Cell Growth (%) (K562/DOX cells [3]; [7]): 77.9 ± 6.1% | Cell Growth (%) (K562/DOX cells [3]; [8]): 74.0 ± 2.6% | Cell Growth (%) (LoVo/DOX cells [4]; [9]): 82.0 ± 2.0% | Cell Growth (%) (LoVo/DOX cells [4]; [10]): 58.2 ± 5.9%

COc1cccc2c1C(=O)c1c(O)c3c(c(O)c1C2=O)C[C@@](O)(C(=O)CO)C[C@@H]3O[C@H]1C[C@H](N)[C@H](O)[C@H](C)O1 [doxo, doxorubicin]
activity at 0.5 µM (K562/DOX cells [3]; Homo sapiens, doxorubicin 0.5 µM alone, read-out: Cell Growth (%)): 80 ± 3.6% | activity at 0.3 µM (LoVo/DOX cells [4]; Homo sapiens, doxorubicin 0.3 µM alone, read-out: Cell Growth (%)): 80 ± 2.5% | IC50 (K562/DOX cells [5]; K562/DOX cells ref 38, read-out: doxorubicin IC50): 2470 ± 250 nM | IC20 (K562/DOX cells [5]; K562/DOX cells, extrapolated from earlier cytotoxicity curves ref 38, read-out: doxorubicin IC20): 500 nM | resistance index to doxorubicin (IC50 resistant/parental) (K562/DOX cells [5]; K562/DOX vs K562 ref 38): 73 | IC50 (LoVo cells): 63 ± 6.6 nM | IC50 (LoVo/DOX cells [6]; Homo sapiens, LoVo, 72 h, read-out: doxorubicin IC50): 850 ± 84 nM | IC20 (LoVo/DOX cells [6]; Homo sapiens, LoVo, read-out: doxorubicin IC20): 300 nM | resistance index to doxorubicin (IC50 resistant/parental) (LoVo/DOX cells [6]; LoVo/DOX vs LoVo): 13.5
